From paper PMC4890005, “Newly identified motifs in Candida albicans Cdr1 protein nucleotide binding domains are pleiotropic drug resistance subfamily-specific and functionally asymmetric” (Scientific Reports, 2016) come the findings set out here.

Data set [1] deals with T1, Cdr1p (Cdr1p-GFP) (Candida albicans, UniProt Q5ANA3).
T1 construct: gene CDR1; plasmid pPSCDR1-GFP integrated at PDR5 locus of S. cerevisiae AD1-8u-; plasma membrane fractions or cells
As to the kind of experiment: R6G binding, from drug transport kinetics of overexpressing yeast (method not detailed). Format: cell-based.

The target of data set [2] is T2, Cdr1p (Cdr1p-GFP) (Candida albicans, UniProt Q5ANA3, DEL903-903).
T2 construct: gene CDR1
As to the kind of experiment: cell-based.
Text: (§1) R6G binding, from drug transport kinetics of overexpressing yeast (method not detailed) on Cdr1p (Cdr1p-GFP)

Data set [3] concerns the target T3, Cdr1p (Cdr1p-GFP) (Candida albicans, UniProt Q5ANA3, DEL905-905).
T3 construct: gene CDR1
In words: cell-based.
Text: as §1

The test system of data set [4] is Nc1ncnc2c1ncn2[C@@H]1O[C@H](COP(=O)(O)OP(=O)(O)OP(=O)(O)O)[C@@H](O)[C@H]1O. As to the kind of experiment: cells, lysate or membranes. As to conditions: 30 °C, Mg-ATP, GFP-tagged wild type.
Text: oligomycin-sensitive ATPase, Pi release, plasma membrane fraction; Lineweaver-Burk on Cdr1p (Cdr1p-GFP)

Usually Kd stands for the free concentration of one partner at which half of the binding sites on the other are occupied at equilibrium, for simple one-to-one binding. High values mean weaker binding, low ones tighter binding. Take `CCN=c1cc2oc3cc(NCC)c(C)cc3c(-c3ccccc3C(=O)OCC)c-2cc1C` [Rhodamine 6G]: the figures for the dissociation constant (Kd) in data set [1], in data set [2] and in data set [3] were 9 ± 1.8 µM, 11.9 ± 1.9 µM and 25 ± 2 µM, respectively.
By Km is commonly meant the substrate concentration at which the rate is half of its maximum. The Vmax is the rate approached at saturating substrate. Regarding “Cdr1p (Cdr1p-GFP) (Candida albicans SC5314)”, in data set [4], the Km is 2100 ± 500 µM and the Vmax turned out to be 0.105 µmol/min/mg.
